Data as given in PubChem BioAssay AID1963973 (Molecular Pharmacology Branch, DTP, NCI, 2024).

Test system: 883617-216-R-J1-PDC tumor spheroids, viability
Experiment: Anticancer human tumor 883617-216-R-J1-PDC patient-derived bladder carcinoma cell line growth inhibition [PI3K]
Settings: spheroids with HUVEC and MSC; for viability, T/C: stronger effect = lower value
Summary of the method: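 Combination activity was assessed by viability in multicellular tumor spheroids carrying HUVEC and MSC components. Agents were tested with PI3K inhibitors from a Cmax-based top dose (or 10 microM) downward in half-log increments.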

[1] = curve of first compound, second compound 0.00316 µM
[2] = curve of first compound, second compound 0.01 µM
[3] = curve of first compound, second compound 0.0316 µM
[4] = curve of first compound, second compound 0.1 µM
[5] = curve of first compound, second compound 0.316 µM
[6] = curve of first compound, second compound 1 µM
[7] = second compound 0.00316 µM, first compound 0.0316 µM
[8] = second compound 0.00316 µM, first compound 0.1 µM
[9] = second compound 0.00316 µM, first compound 0.316 µM
[10] = second compound 0.00316 µM, first compound 1 µM
[11] = second compound 0.00316 µM, first compound 3.16 µM
[12] = second compound 0.00316 µM, first compound 10 µM
[13] = second compound 0.01 µM, first compound 0.0316 µM
[14] = second compound 0.01 µM, first compound 0.1 µM
[15] = second compound 0.01 µM, first compound 0.316 µM
[16] = second compound 0.01 µM, first compound 1 µM
[17] = second compound 0.01 µM, first compound 3.16 µM
[18] = second compound 0.01 µM, first compound 10 µM
[19] = second compound 0.0316 µM, first compound 0.0316 µM
[20] = second compound 0.0316 µM, first compound 0.1 µM
[21] = second compound 0.0316 µM, first compound 0.316 µM
[22] = second compound 0.0316 µM, first compound 1 µM
[23] = second compound 0.0316 µM, first compound 3.16 µM
[24] = second compound 0.0316 µM, first compound 10 µM
[25] = second compound 0.1 µM, first compound 0.0316 µM
[26] = second compound 0.1 µM, first compound 0.1 µM
[27] = second compound 0.1 µM, first compound 0.316 µM
[28] = second compound 0.1 µM, first compound 1 µM
[29] = second compound 0.1 µM, first compound 3.16 µM
[30] = second compound 0.1 µM, first compound 10 µM
[31] = second compound 0.316 µM, first compound 0.0316 µM
[32] = second compound 0.316 µM, first compound 0.1 µM
[33] = second compound 0.316 µM, first compound 0.316 µM
[34] = second compound 0.316 µM, first compound 1 µM
[35] = second compound 0.316 µM, first compound 3.16 µM
[36] = second compound 0.316 µM, first compound 10 µM
[37] = second compound 1 µM, first compound 0.0316 µM
[38] = second compound 1 µM, first compound 0.1 µM
[39] = second compound 1 µM, first compound 0.316 µM
[40] = second compound 1 µM, first compound 1 µM
[41] = second compound 1 µM, first compound 3.16 µM
[42] = second compound 1 µM, first compound 10 µM
[43] = curve of first compound, second compound 3.16 µM
[44] = curve of first compound, second compound 10 µM
[45] = second compound 3.16 µM, first compound 0.0316 µM
[46] = second compound 3.16 µM, first compound 0.1 µM
[47] = second compound 3.16 µM, first compound 0.316 µM
[48] = second compound 3.16 µM, first compound 1 µM
[49] = second compound 3.16 µM, first compound 3.16 µM
[50] = second compound 3.16 µM, first compound 10 µM
[51] = second compound 10 µM, first compound 0.0316 µM
[52] = second compound 10 µM, first compound 0.1 µM
[53] = second compound 10 µM, first compound 0.316 µM
[54] = second compound 10 µM, first compound 1 µM
[55] = second compound 10 µM, first compound 3.16 µM
[56] = second compound 10 µM, first compound 10 µM
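Further: spheroids exposed to agents for 7 days before the viability read.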

Work on `CC1(C)CCC(Nc2ncc(C(F)(F)F)c(-c3c[nH]c4c(P(C)(C)=O)c(C#N)ccc34)n2)CN1` (stereo not drawn) + CC(Nc1ccc2c(c1)OCCn1cc(N3C(=O)OCC3C(F)F)nc1-2)C(N)=O yielded an IC50 [1] of less than 31.6 nM, an IC50 [2] of less than 31.6 nM and an IC50 [3] of less than 31.6 nM. It also gave an IC50 [4] of less than 31.6 nM, an IC50 [5] of less than 31.6 nM and an IC50 [6] of less than 31.6 nM. For the same compound, the viability, T/C [7] was 31.5%, the viability, T/C [8] was 17.9% and the viability, T/C [9] was 17.6%. For the same compound, the viability, T/C [10] was 14%, the viability, T/C [11] was 6.49% and the viability, T/C [12] was 0.36%. It also gave a viability, T/C [13] of 30.4%, a viability, T/C [14] of 23.2% and a viability, T/C [15] of 19.7%. For the same compound, the viability, T/C [16] was 18.7%, the viability, T/C [17] was 6.21% and the viability, T/C [18] was 0.37%. It also gave a viability, T/C [19] of 30.2%, a viability, T/C [20] of 18.7% and a viability, T/C [21] of 21.8%. For the same compound, the viability, T/C [22] was 14.3%, the viability, T/C [23] was 4.74% and the viability, T/C [24] was 0.17%. For the same compound, the viability, T/C [25] was 25.5%, the viability, T/C [26] was 17.6% and the viability, T/C [27] was 19.1%. The viability, T/C [28] was 12.2%, the viability, T/C [29] was 4.58% and the viability, T/C [30] was 0.1%. It also gave a viability, T/C [31] of 21.6%, a viability, T/C [32] of 15.4% and a viability, T/C [33] of 14.2%. The viability, T/C [34] was 10.8%, the viability, T/C [35] was 3% and the viability, T/C [36] was 0.12%. For the same compound, the viability, T/C [37] was 13.9%, the viability, T/C [38] was 10.4% and the viability, T/C [39] was 9.92%. The viability, T/C [40] was 12.2%, the viability, T/C [41] was 2.77% and the viability, T/C [42] was 0.33%.
In the case of `CNC(=O)c1ccc(N2C(=S)N(c3ccc(C#N)c(C(F)(F)F)c3)C(=O)C2(C)C)cc1F`, the viability, T/C (compound 0.0316 µM) is reported as 94.7% [middle of 4 runs], the viability, T/C (compound 0.316 µM) is reported as 99.7% [middle of 4 runs] and the viability, T/C (compound 1 µM) is reported as 98.9% [middle of 4 runs]. For the same compound, the viability, T/C (compound 3.16 µM) was 101% [middle of 4 runs] and the IC50 (curve of compound) was greater than 10000 nM.
Compound `C#Cc1c(F)ccc2cc(O)cc(-c3ncc4c(N5CC6CCC(C5)N6)nc(OCC56CCCN5CC(F)C6)nc4c3F)c12` (stereo not drawn) + CC(Nc1ccc2c(c1)OCCn1cc(N3C(=O)OCC3C(F)F)nc1-2)C(N)=O has an IC50 [1] greater than 10000 nM, an IC50 [2] greater than 10000 nM and an IC50 [3] of 6510 nM. It also gave an IC50 [4] of less than 31.6 nM, an IC50 [5] of less than 31.6 nM and an IC50 [6] of less than 31.6 nM. For the same compound, the viability, T/C [7] was 85.3%, the viability, T/C [8] was 89.7% and the viability, T/C [9] was 84.8%. For the same compound, the viability, T/C [10] was 91.2%, the viability, T/C [11] was 79.6% and the viability, T/C [12] was 54.8%. It also gave a viability, T/C [13] of 87.9%, a viability, T/C [14] of 88.4% and a viability, T/C [15] of 88.3%. The viability, T/C [16] was 85%, the viability, T/C [17] was 74.3% and the viability, T/C [18] was 53.2%. The viability, T/C [19] was 79.9%, the viability, T/C [20] was 75.3% and the viability, T/C [21] was 64.9%. The viability, T/C [22] was 88.5%, the viability, T/C [23] was 62.4% and the viability, T/C [24] was 40.2%. The viability, T/C [25] was 41.1%, the viability, T/C [26] was 39.7% and the viability, T/C [27] was 42.7%. It also gave a viability, T/C [28] of 39.6%, a viability, T/C [29] of 31% and a viability, T/C [30] of 21%. The viability, T/C [31] was 27.6%, the viability, T/C [32] was 21.4% and the viability, T/C [33] was 21.4%. It also gave a viability, T/C [34] of 24.6%, a viability, T/C [35] of 16.7% and a viability, T/C [36] of 16.8%. It also gave a viability, T/C [37] of 13.4%, a viability, T/C [38] of 16.9% and a viability, T/C [39] of 17.1%. For the same compound, the viability, T/C [40] was 12.8%, the viability, T/C [41] was 14.2% and the viability, T/C [42] was 8%.
For `C#Cc1c(F)ccc2cc(O)cc(-c3ncc4c(N5CC6CCC(C5)N6)nc(OCC56CCCN5CC(F)C6)nc4c3F)c12` (stereo not drawn) + CC(Nc1ncnc2nc[nH]c12)c1cc2cccc(Cl)c2c(=O)n1-c1ccccc1, the IC50 [3] was greater than 10000 nM, the IC50 [4] was greater than 10000 nM and the IC50 [5] was greater than 10000 nM. It also gave an IC50 [6] greater than 10000 nM, an IC50 [43] of 5970 nM and an IC50 [44] of 120 nM. For the same compound, the viability, T/C [19] was 91.5%, the viability, T/C [20] was 109% and the viability, T/C [21] was 84.2%. It also gave a viability, T/C [22] of 94.8%, a viability, T/C [23] of 78% and a viability, T/C [24] of 61.1%. It also gave a viability, T/C [25] of 101%, a viability, T/C [26] of 96.7% and a viability, T/C [27] of 95.1%. The viability, T/C [28] was 84.9%, the viability, T/C [29] was 94.8% and the viability, T/C [30] was 56.5%. For the same compound, the viability, T/C [31] was 77.6%, the viability, T/C [32] was 86.1% and the viability, T/C [33] was 78.5%. The viability, T/C [34] was 94.3%, the viability, T/C [35] was 76.4% and the viability, T/C [36] was 54.5%. The viability, T/C [37] was 84.1%, the viability, T/C [38] was 81.9% and the viability, T/C [39] was 74.2%. It also gave a viability, T/C [40] of 73%, a viability, T/C [41] of 69.9% and a viability, T/C [42] of 49.7%. It also gave a viability, T/C [45] of 77.6%, a viability, T/C [46] of 70.4% and a viability, T/C [47] of 60.3%. It also gave a viability, T/C [48] of 70.7%, a viability, T/C [49] of 55.1% and a viability, T/C [50] of 44.3%. The viability, T/C [51] was 52.1%, the viability, T/C [52] was 56.4% and the viability, T/C [53] was 39.1%. The viability, T/C [54] was 45.1%, the viability, T/C [55] was 33.2% and the viability, T/C [56] was 26.6%.
For `CCCS(=O)(=O)Nc1ccc(F)c(C(=O)c2c[nH]c3ncc(-c4ccc(Cl)cc4)cc23)c1F` + Cc1nc(NC(=O)N2CCCC2C(N)=O)sc1-c1ccnc(C(C)(C)C(F)(F)F)c1, the IC50 [3] was 4360 nM, the IC50 [4] was 4380 nM and the IC50 [5] was 858 nM. It also gave an IC50 [6] of less than 31.6 nM, an IC50 [43] of less than 31.6 nM and an IC50 [44] of less than 31.6 nM. For the same compound, the viability, T/C [19] was 75.6%, the viability, T/C [20] was 83.1% and the viability, T/C [21] was 88.1%. For the same compound, the viability, T/C [22] was 92.9%, the viability, T/C [23] was 66.4% and the viability, T/C [24] was 7.45%. The viability, T/C [25] was 84.8%, the viability, T/C [26] was 78.3% and the viability, T/C [27] was 65%. It also gave a viability, T/C [28] of 74%, a viability, T/C [29] of 66% and a viability, T/C [30] of 9.98%. The viability, T/C [31] was 53.6%, the viability, T/C [32] was 55.1% and the viability, T/C [33] was 51.4%. It also gave a viability, T/C [34] of 49.2%, a viability, T/C [35] of 39.8% and a viability, T/C [36] of 10.4%. The viability, T/C [37] was 33.3%, the viability, T/C [38] was 26.5% and the viability, T/C [39] was 34.3%. For the same compound, the viability, T/C [40] was 39.8%, the viability, T/C [41] was 35.9% and the viability, T/C [42] was 7.76%. For the same compound, the viability, T/C [45] was 16.6%, the viability, T/C [46] was 16.3% and the viability, T/C [47] was 17.8%. It also gave a viability, T/C [48] of 19.3%, a viability, T/C [49] of 16.6% and a viability, T/C [50] of 7.14%. The viability, T/C [51] was 7.33%, the viability, T/C [52] was 7.82% and the viability, T/C [53] was 7.92%. It also gave a viability, T/C [54] of 10%, a viability, T/C [55] of 9.86% and a viability, T/C [56] of 4.55%.
